Measurements as given in patent publication US4304679A, “Detergent product containing deodorant compositions” (priority 1978, dated 1981).

Biological target: T1, lipoxidase (ECl.13.1.13) (Glycine max, UniProt P08170)
T1 sequence (P08170 1-839): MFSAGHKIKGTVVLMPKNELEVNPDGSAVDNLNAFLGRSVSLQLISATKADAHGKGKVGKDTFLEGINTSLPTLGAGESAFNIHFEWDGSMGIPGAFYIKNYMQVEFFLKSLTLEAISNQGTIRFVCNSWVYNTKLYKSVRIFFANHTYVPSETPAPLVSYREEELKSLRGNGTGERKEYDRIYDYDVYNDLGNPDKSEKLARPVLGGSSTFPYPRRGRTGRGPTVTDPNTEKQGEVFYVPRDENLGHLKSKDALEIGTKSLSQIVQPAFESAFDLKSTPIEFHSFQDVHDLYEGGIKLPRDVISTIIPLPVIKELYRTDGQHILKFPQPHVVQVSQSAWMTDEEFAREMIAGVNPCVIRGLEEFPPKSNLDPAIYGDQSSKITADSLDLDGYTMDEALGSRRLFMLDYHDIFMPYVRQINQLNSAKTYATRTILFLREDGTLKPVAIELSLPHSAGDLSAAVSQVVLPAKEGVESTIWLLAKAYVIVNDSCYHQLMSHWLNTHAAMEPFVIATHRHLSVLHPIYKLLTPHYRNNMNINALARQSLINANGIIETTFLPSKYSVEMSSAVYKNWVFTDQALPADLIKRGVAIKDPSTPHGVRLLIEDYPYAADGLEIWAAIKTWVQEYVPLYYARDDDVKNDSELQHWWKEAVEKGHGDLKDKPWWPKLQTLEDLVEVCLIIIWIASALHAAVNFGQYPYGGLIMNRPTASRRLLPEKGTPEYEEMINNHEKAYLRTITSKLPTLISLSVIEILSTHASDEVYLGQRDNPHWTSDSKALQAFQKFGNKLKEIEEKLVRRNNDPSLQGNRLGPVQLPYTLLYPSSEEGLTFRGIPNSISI
Experiment: Lipoxidase test: inhibition of the oxidation of linoleic acid by lipoxidase
Type: biochemical
Details: test substrate made with 0.5% by weight solution of material in ethanol; pH 9.0 borate buffer; 234 nm

Row | Substance | LIC (lipoxidase inhibiting capacity, % inhibition) [%]
1 | i-Nonyl acetate | 50
2 | Dimyrcetol | 16
3 | i-Nonyl formate | 19
4 | Tetrahydromuguol | 24
